Data from ChEMBL document CHEMBL1125924, “Thienotriazolodiazepines as platelet-activating factor antagonists. Steric limitations for the substituent in position 2” (J Med Chem, 1991).
Activity calls are given as the source filed them. The rule behind the calls is not given here.

Columns and labels:
Cavia porcellus [1] = experiment: In vivo inhibitory dose against PAF-induced bronchoconstriction in guinea pig upon intravenous administration after one-minute pre-treatment time.; format: functional; conditions: read-out: ID50 (the source's name)
Cavia porcellus [2] = experiment: In vivo inhibition against PAF-induced bronchoconstriction in guinea pig at 1 mg/kg dose upon peroral administration after […] pre-treatment time.; format: functional; conditions: route oral
Cavia porcellus [3] = experiment: In vivo inhibitory dose against PAF-induced bronchoconstriction in guinea pig upon peroral administration after […] pretreatment time; format: functional; conditions: po, read-out: ID50 (the source's name)
Cavia porcellus [4] = experiment: In vivo inhibitory dose against PAF-induced bronchoconstriction in guinea pig upon intravenous administration after one-minute pretreatment time; IA=Inactive; format: functional, organism-based
[5] = In vitro for platelet activating factor receptor antagonist activity in a binding assay using washed whole dog platelets.

Compound	ED50 (Cavia porcellus [1]) [mg/kg]	inhibition in vivo at 1 mg/kg (Cavia porcellus [2]) [%]	ED50 (Cavia porcellus [3]) [mg/kg]	ID50 (Cavia porcellus [4])	IC50 [5] [µM]
Cc1nnc2n1-c1sc(/C(CC(=O)N3CCOCC3)=N\N)cc1C(c1ccccc1Cl)=NC2	0.5	12	–	–	–
Cc1nnc2n1-c1sc(/C=C\c3ccc(CC(C)C)cc3)cc1C(c1ccccc1Cl)=NC2	0.004	99	0.03	–	–
Cc1nnc2n1-c1sc(/C=C\c3ccccn3)cc1C(c1ccccc1Cl)=NC2	0.05	20	–	–	–
Cc1nnc2n1-c1sc(C#Cc3ccc(-c4ccccn4)s3)cc1C(c1ccccc1Cl)=NC2	0.003	93	0.08	–	–
Cc1nnc2n1-c1sc(CCc3ccc4c(c3)CCC4)cc1C(c1ccccc1Cl)=NC2	0.04	99	0.03	–	–
Cc1nnc2n1-c1sc(C#Cc3ccc(CC(C)C)cc3)cc1C(c1ccccc1Cl)=NC2	0.3	2	–	–	–
Cc1nnc2n1-c1sc(C#Cc3ccc(C4CCCCC4)cc3)cc1C(c1ccccc1Cl)=NC2	0.3	22	–	–	–
Cc1cc(CCc2cc3c(s2)-n2c(C)nnc2CN=C3c2ccccc2Cl)cc2c1OC(C)(C)C2	0.01	96	0.3	–	–
Cc1cc(C#Cc2cc3c(s2)-n2c(C)nnc2CN=C3c2ccccc2Cl)cc2c1OC(C)(C)C2	–	–	–	inactive	–
Cc1nnc2n1-c1sc(I)cc1C(c1ccccc1Cl)=NC2	0.2	4	–	–	0.37
Cc1nnc2n1-c1sc(CCc3ccc4c(c3)CCO4)cc1C(c1ccccc1Cl)=NC2	0.003	44	–	–	–
C#Cc1cc2c(s1)-n1c(C)nnc1CN=C2c1ccccc1Cl	0.02	9	–	–	–
Cc1nnc2n1-c1sc(-c3[nH]nnc3C(=O)N3CCOCC3)cc1C(c1ccccc1Cl)=NC2	–	–	–	inactive	–
Cc1nnc2n1-c1sc(-c3cc(O)[nH]n3)cc1C(c1ccccc1Cl)=NC2	–	–	–	inactive	–
Cc1nnc2n1-c1sc(C#Cc3ccc4c(c3)CCO4)cc1C(c1ccccc1Cl)=NC2	0.2	7	–	–	–
Cc1nnc2n1-c1sc(C#Cc3ccccn3)cc1C(c1ccccc1Cl)=NC2	0.06	5	–	–	–
Cc1nnc2n1-c1sc(/C=C/C(=O)N3CCOCC3)cc1C(c1ccccc1Cl)=NC2	0.4	27	–	–	–
Cc1nnc2n1-c1sc(CCC(=O)N3CCOCC3)cc1C(c1ccccc1Cl)=NC2 [APAFANT]	0.03	42	1.2	–	–

Compound	ED50 (Cavia porcellus [1]) [mg/kg]	inhibition in vivo at 1 mg/kg (Cavia porcellus [2]) [%]	ED50 (Cavia porcellus [3]) [mg/kg]	ID50 (Cavia porcellus [4])	IC50 [5] [µM]
Cc1nnc2n1-c1sc(C#C[Si](C)(C)C)cc1C(c1ccccc1Cl)=NC2	0.3	28	–	–	–
Cc1nnc2n1-c1sc(/C=C\C(=O)N3CCOCC3)cc1C(c1ccccc1Cl)=NC2	0.06	20	–	–	–
CCCCc1ccc(CCc2cc3c(s2)-n2c(C)nnc2CN=C3c2ccccc2Cl)cc1	0.003	98	0.2	–	–
Cc1nnc2n1-c1sc(/C=C\c3ccc4c(c3)CCC4)cc1C(c1ccccc1Cl)=NC2	0.03	58	0.7	–	–
CCCCc1ccc(C#Cc2cc3c(s2)-n2c(C)nnc2CN=C3c2ccccc2Cl)cc1	0.2	6	–	–	–
Cc1nnc2n1-c1sc(/C=C\c3ccc(C4CCCCC4)cc3)cc1C(c1ccccc1Cl)=NC2	0.03	85	0.4	–	–
Cc1nnc2n1-c1sc(C#Cc3ccccc3)cc1C(c1ccccc1Cl)=NC2	3	6	–	–	–
Cc1nnc2n1-c1sc(CCc3ccc(C4CCCCC4)cc3)cc1C(c1ccccc1Cl)=NC2	0.005	68	0.4	–	–
Cc1nnc2n1-c1sc(C#Cc3ccc4c(c3)CCC4)cc1C(c1ccccc1Cl)=NC2	0.2	20	–	–	–
Cc1nnc2n1-c1sc(Br)cc1C(c1ccccc1Cl)=NC2 [BROTIZOLAM]	0.5	11	–	–	–
CCCCc1ccc(/C=C\c2cc3c(s2)-n2c(C)nnc2CN=C3c2ccccc2Cl)cc1	0.0004	93	0.35	–	–
Cc1nnc2n1-c1sc(CCc3ccc(-c4ccccn4)s3)cc1C(c1ccccc1Cl)=NC2	0.003	89	0.4	–	–
Cc1nnc2n1-c1sc(CCc3ccc(CC(C)C)cc3)cc1C(c1ccccc1Cl)=NC2	0.002	99	0.03	–	–
Cc1nnc2n1-c1sc(C#Cc3cccc4ccccc34)cc1C(c1ccccc1Cl)=NC2	0.03	14	–	–	–
Cc1nnc2n1-c1sc(C#CC(=O)N3CCOCC3)cc1C(c1ccccc1Cl)=NC2	0.5	16	–	–	–
Cc1nnc2n1-c1sc(CCc3ccc(-n4ccnc4)cc3)cc1C(c1ccccc1Cl)=NC2	0.003	95	0.4	–	–
Cc1nnc2n1-c1sc(C#CCO)cc1C(c1ccccc1Cl)=NC2	0.02	20	–	–	–
